These results are taken from US9556201B2, “Bicyclic pyridines and analogs as sirtuin modulators” (GLAXOSMITHKLINE LLC, priority 2009, dated 2017).

In assay [1] the target is T1, SIRT1 (Homo sapiens, UniProt Q96EB6).
T1 sequence (Q96EB6 1-747): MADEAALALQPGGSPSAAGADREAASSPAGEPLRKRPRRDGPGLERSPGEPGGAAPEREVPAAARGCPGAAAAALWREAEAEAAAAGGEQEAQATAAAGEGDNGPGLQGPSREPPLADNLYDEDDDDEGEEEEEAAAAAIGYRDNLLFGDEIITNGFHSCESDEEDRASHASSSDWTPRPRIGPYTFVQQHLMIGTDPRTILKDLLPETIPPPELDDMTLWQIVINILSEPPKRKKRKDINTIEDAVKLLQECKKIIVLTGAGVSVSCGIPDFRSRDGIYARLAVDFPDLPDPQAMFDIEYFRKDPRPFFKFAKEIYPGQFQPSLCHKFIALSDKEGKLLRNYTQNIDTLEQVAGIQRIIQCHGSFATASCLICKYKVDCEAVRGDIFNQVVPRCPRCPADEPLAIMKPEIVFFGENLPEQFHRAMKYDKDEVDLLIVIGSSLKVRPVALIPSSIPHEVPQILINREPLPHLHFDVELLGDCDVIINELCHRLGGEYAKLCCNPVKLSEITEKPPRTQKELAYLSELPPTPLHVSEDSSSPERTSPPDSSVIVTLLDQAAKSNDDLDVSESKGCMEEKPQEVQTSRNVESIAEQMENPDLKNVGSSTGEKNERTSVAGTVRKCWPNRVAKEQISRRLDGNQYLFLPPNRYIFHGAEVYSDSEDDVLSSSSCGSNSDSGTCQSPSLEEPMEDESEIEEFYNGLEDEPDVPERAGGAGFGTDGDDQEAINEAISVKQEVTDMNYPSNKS
Put plainly: Mass spectrometry based assay to identify modulators of SIRT1 activity (deacetylation of p53-based acetylated peptide substrate). The format is biochemical. The note with it: for Emax: 25 min, read-out: % FOLD ACT. (percent maximum fold activation); for Emax / EC1.5: SIRT1 activation. Summed up:
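His-tagged human SIRT1 (10 nM, E. coli) incubated 25 min at 25 °C with […] p53-derived acetylated 5TMR peptide and 120 μM βNAD+ in pH 8 Tris-acetate buffer, then formic acid-stopped. Mass spectrometry quantifies acetylated vs deacetylated peptide; nicotinamide and DMSO controls.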

The subject of assay [2] is TNF. Briefly: TNF IC50 (column of Table 1; method not shown). Type of assay: cell-based.

With `O=C(Nc1cccc(OC[C@H](O)CO)n1)N1CCOc2ccc(-c3cccc(C(F)(F)F)c3)nc21` [Compound 570, (R)—N-(6-(2,3-dihydroxypropoxy)pyridin-2-yl)-6-(3-(trifluoromethyl)phenyl)-2H-pyrido[3,2-b][1,4]oxazine-4(3H)-carboxamide], in assay [1], the Emax was > 200% and the EC1.5 entry was “A (EC1.5<1.0 μM)”. Further, the IC50 in assay [2] was < 20 µM.
In the same order, the values of `Cc1cncc(NC(=O)N2CC(C)(C)Oc3ccc(-c4cccc(N5CCCC5)c4)nc32)c1` [Compound 603] are > 200%, “A (EC1.5<1.0 μM)” and ≥ 20 µM.
In the case of `O=C(Nc1ccnc(N2CCCC2)c1)N1CCCOc2ccc(-c3cccc(Cl)c3)nc21` [Compound 609], in assay [1], the Emax was > 200% and the EC1.5 result is reported as “A (EC1.5<1.0 μM)”. For the same molecule, the IC50 in assay [2] is < 20 µM.
For the molecule `O=C(Nc1cccc(OC[C@H](O)CO)n1)N1CCCc2ccc(-c3cccc(C(F)(F)F)c3)nc21` [Compound 678], in assay [1], the Emax is > 200% and the EC1.5 entry is recorded as “A (EC1.5<1.0 μM)”. The IC50 in assay [2] is ≥ 20 µM.
In the same order, the values of `O=C(Nc1cccc(CN2CCOCC2)n1)N1CCOc2ccc(-c3cccc(C(F)(F)F)c3)nc21` [Compound 510] are > 200%, “A (EC1.5<1.0 μM)” and ≥ 20 µM.
For `Cc1cc(NC(=O)N2CC(C)(C)Oc3ccc(-c4cccc(N(C)C)c4)nc32)cc(C)n1` [Compound 597] the same measures were > 200%, “A (EC1.5<1.0 μM)” and < 20 µM.
In the same order, the values of `O=C(Nc1cncc(OCC(O)CO)n1)N1CCOc2ccc(-c3cccc(C(F)(F)F)c3)nc21` (stereo not shown) [Compound 696, N-(6-(2,3-dihydroxypropoxy)pyrazin-2-yl)-6-(3-(trifluoromethyl)phenyl)-2H-pyrido[3,2-b][1,4]oxazine-4(3H)-carboxamide] are > 200%, “A (EC1.5<1.0 μM)” and < 20 µM.
Consider `O=C(Nc1cccnc1)N1CCCc2ccc(-c3cccc(Cl)c3)nc21` [Compound 653], for which, in assay [1], the Emax was > 200% and the EC1.5 entry was “A (EC1.5<1.0 μM)”. Further, the 50% inhibitory concentration (IC50) in assay [2] was ≥ 20 µM.
On to `Cc1cc(-c2cccc(C(F)(F)F)c2)nc2c1OCCN2C(=O)Nc1cccc(OCC(O)CO)n1` (stereo not shown) [Compound 682], for which, in assay [1], the Emax was > 200% and the EC1.5 result is reported as “A (EC1.5<1.0 μM)”. Besides, in assay [2], the IC50 was < 20 µM.
Turning to `Cc1csc(NC(=O)N2CCCOc3ccc(-c4cccc(Cl)c4)nc32)n1` [Compound 607], in assay [1], the Emax was > 200% and the EC1.5 entry is “A (EC1.5<1.0 μM)”. Besides, the IC50 in assay [2] was ≥ 20 µM.
For `O=C(Nc1ccnc(N2CCC2)c1)N1CCCc2ccc(-c3cccc(F)c3)nc21` [Compound 596] the same measures were > 200%, “A (EC1.5<1.0 μM)” and < 20 µM.
As for `Cc1cc(NC(=O)N2CC(C)(C)Oc3ccc(-c4cccc(N5CCOCC5)c4)nc32)cc(C)n1` [Compound 659], in assay [1], the Emax is > 200% and the EC1.5 result is on record as “A (EC1.5<1.0 μM)”. Also, in assay [2], the half-maximal inhibitory concentration (IC50) is < 20 µM.
Regarding `Cc1cc(NC(=O)N2CC(C)(C)Oc3ccc(-c4cccc(F)c4)nc32)cc(C)n1` [Compound 592], in assay [1], the Emax is > 200% and the EC1.5 entry was “A (EC1.5<1.0 μM)”. In addition, the IC50 in assay [2] was ≥ 20 µM.
On to `Cc1csc(NC(=O)N2CCCc3ccc(-c4cccc(Cl)c4)nc32)n1` [Compound 616], for which, in assay [1], the Emax was > 200% and the EC1.5 entry is recorded as “A (EC1.5<1.0 μM)”. The 50% inhibitory concentration (IC50) in assay [2] is ≥ 20 µM.
As for `Cc1cc(NC(=O)N2CCOc3ccc(-c4ccc5c(c4)CCO5)nc32)cc(C)n1` [Compound 574], in assay [1], the Emax is > 200% and the EC1.5 result is listed as “A (EC1.5<1.0 μM)”. For the same molecule, the IC50 in assay [2] was ≥ 20 µM.
For `O=C(Nc1ccncc1)N1CCOc2ccc(-c3cccc(N4CCCC4)c3)nc21` [Compound 559] the same measures were > 200%, “A (EC1.5<1.0 μM)” and < 20 µM.
For the molecule `Cc1cc(C)nc(NC(=O)N2CCCc3ccc(-c4cccc(F)c4)nc32)c1` [Compound 664], in assay [1], the Emax was > 200% and the EC1.5 entry is on record as “A (EC1.5<1.0 μM)”. Besides, the half-inhibitory concentration (IC50) in assay [2] is ≥ 20 µM.
Take `Cc1csc(NC(=O)N2CC(C)(C)Oc3ccc(-c4cccc(N5CCCC5)c4)nc32)n1` [Compound 606]: in assay [1], the Emax is ≤ 200% and the EC1.5 entry is “A (EC1.5<1.0 μM)”. The IC50 in assay [2] was ≥ 20 µM.
In the same order, the values of `Cc1cc(-c2cccc(Cl)c2)nc2c1OCCN2C(=O)Nc1cccc(OCC(O)CO)n1` (stereo not shown) [Compound 691] are > 200%, “A (EC1.5<1.0 μM)” and < 20 µM.
For `Cc1cncc(NC(=O)N2CC(C)(C)Oc3ccc(-c4cccc(N5CC[C@H](F)C5)c4)nc32)c1` [Compound 660, (S)-6-(3-(3-fluoropyrrolidin-1-yl)phenyl)-2,2-dimethyl-N-(5-methylpyridin-3-yl)-2H-pyrido[3,2-b][1,4]oxazine-4(3H)-carboxamide] the same measures were > 200%, “A (EC1.5<1.0 μM)” and ≥ 20 µM.
In the same order, the values of `Cc1cc(NC(=O)N2CCN(C)c3ccc(-c4cccc(C(F)(F)F)c4)nc32)cc(C)n1` [Compound 532] are ≤ 200%, “B (EC1.5 1-25 μM)” and ≥ 20 µM.
Take `O=C(Nc1ncccn1)N1CCCOc2ccc(-c3cccc(Cl)c3)nc21` [Compound 865]: in assay [1], the EC1.5 (concentration giving 1.5-fold activation) was in the range of 1 to 25 µM and the Emax is > 200%.
`O=C(Nc1ccncc1)N1CCOc2c(N3CCNCC3)nc(-c3cccc(F)c3)nc21` [Compound 751]: in assay [1], the “% FOLD ACT. (percent maximum fold activation)” value is reported as “B (Fold Activation≦200%)” and the EC1.5 (concentration giving 1.5-fold activation) lay in the range of 1 to 25 µM.
In the case of `CCN1C(=O)CCN(C(=O)Nc2ccncn2)c2nc(-c3cccc(Cl)c3)ccc21` [Compound 775], in assay [1], the EC1.5 (concentration giving 1.5-fold activation) is > 25 µM and the Emax is ≤ 200%.
In the same order, the values of `CC1(C)CCN(C(=O)Nc2cncnc2)c2nc(-c3cccc(C(F)(F)F)c3)ccc21` [Compound 835] are 1 to 25 µM and > 200%.
Take `Cc1cc(OCC(O)CO)nc(NC(=O)N2CCCc3ccc(-c4cccc(C(F)(F)F)c4)nc32)n1` (stereo not shown) [Compound 640]: in assay [1], the Emax was > 200% and the EC1.5 result is “B (EC1.5 1-25 μM)”.
Regarding `O=C(Nc1ccnc(N2CCC2)c1)N1CCOc2ncc(-c3cccc(C(F)(F)F)c3)nc21` [Compound 748], in assay [1], the EC1.5 (concentration giving 1.5-fold activation) was < 1 µM and the Emax was > 200%.
In the same order, the values of `CCN1C(=O)CCN(C(=O)Nc2cccc(C)n2)c2nc(-c3cccc(Cl)c3)ccc21` [Compound 776] are > 25 µM and ≤ 200%.
For `O=C1CCN(C(=O)Nc2ccccn2)c2nc(-c3cccc(C(F)(F)F)c3)ccc21` [Compound 729], in assay [1], the EC1.5 (concentration giving 1.5-fold activation) lay within 1 to 25 µM and the Emax was > 200%.
For the molecule `CN1CCN(C(=O)Nc2cncnc2)c2nc(-c3cccc(C(F)(F)F)c3)ccc21` [Compound 536], in assay [1], the Emax was > 200% and the EC1.5 entry is “A (EC1.5<1.0 μM)”.
As for `CC1(C)CN(C(=O)Nc2ccccn2)c2nc(-c3cccc(F)c3)ccc2O1` [Compound 760], in assay [1], the EC1.5 (concentration giving 1.5-fold activation) fell in the range of 1 to 25 µM and the Emax was > 200%.
For `CCN1CCCN(C(=O)Nc2ccncc2)c2nc(-c3cccc(Cl)c3)ccc21` [Compound 777] the same measures were 1 to 25 µM and > 200%.
For `O=C(Nc1ccc(F)cn1)N1CCCC(F)(F)c2ccc(-c3cccc(Cl)c3)nc21` [Compound 798] the same measures were > 25 µM and ≤ 200%.
Turning to `Cc1cc(NC(=O)N2CCCC(F)(F)c3ccc(-c4cccc(Cl)c4)nc32)ccn1` [Compound 773], in assay [1], the EC1.5 (concentration giving 1.5-fold activation) is 1 to 25 µM and the Emax was > 200%.
For the molecule `Cc1cc(NC(=O)N2CCOc3ccc(-c4cc(C)nn4C)nc32)cc(C)n1` [Compound 632], in assay [1], the Emax was > 200% and the EC1.5 result was “B (EC1.5 1-25 μM)”.
In the same order, the values of `O=C(Nc1cncc(F)c1)N1CCOc2ccc(-c3cccc(C(F)(F)F)c3)nc21` [Compound 547] are > 200% and “A (EC1.5<1.0 μM)”.
In the same order, the values of `CC1(C)CN(C(=O)Nc2cccnc2)c2nc(-c3cccc(CN4CCCC4)c3)ccc2O1` [Compound 630] are > 200% and “B (EC1.5 1-25 μM)”.
As to `Cc1cc(OCC(O)CO)nc(NC(=O)N2CCOc3ccc(-c4cccc(C(F)(F)F)c4)nc32)n1` (stereo not shown) [Compound 698], in assay [1], the EC1.5 (concentration giving 1.5-fold activation) lay within 1 to 25 µM and the Emax is ≤ 200%.
